How the values were obtained:
[1] = The compound was evaluated for its stability in CEM extract; S - Stable; assay type: physicochemical; settings: human
[2] = The compound was evaluated for its stability in RPMI at pH of 7.2 dose 10 x 10e-3; S - Stable; assay type: physicochemical; settings: pH 7.2
[3] = The compound was evaluated for its stability in RPMI containing 10 % of FCS.; assay type: physicochemical; settings: cattle, RPMI culture medium with 10% FCS
[4] = The compound was evaluated for its stability in RPMI containing 10 % of heat-inactivated FCS.; assay type: physicochemical; settings: cattle, RPMI culture medium with 10% heat-inactivated FCS
[5] = Kinetic constant in RPMI containing 10 % of FCS.; assay type: ADME; settings: cattle
[6] = Kinetic constant in RPMI containing 10 % of heat-inactivated FCS.; assay type: ADME; settings: cattle
CCRF-CEM = test: The compound was evaluated for the activity on HIV infected CEM cells.; assay type: functional; settings: Homo sapiens, read-out: ED50 (the source's name)

| T1/2 [1] | T1/2 [2] | half-life [3] [h] | half-life [4] [h] | k [5] [min⁻¹] | k [6] [min⁻¹] | EC50 (CCRF-CEM) [nM] | Structure (SMILES) |
| --- | --- | --- | --- | --- | --- | --- | --- |
| Stable | Stable | 22 | 48 | 0.00052 | 0.00024 | 50 | Nc1ccn(C2CCC(COP(=O)(O)OC[C@@H]3CC[C@H](n4ccc(N)nc4=O)O3)O2)c(=O)n1 (some centres undefined) |
|  |  |  |  |  |  | 500 | COP(=O)(OCC1CCC(n2ccc(N)nc2=O)O1)OC[C@@H]1CC[C@H](n2ccc(N)nc2=O)O1 (some centres undefined) |
|  |  |  |  |  |  | 100 | Nc1ccn([C@H]2CC[C@@H](CO)O2)c(=O)n1 [ZALCITABINE] |
